Experimental data reported in US20100303916A1, “ENHANCED DRUG DELIVERY WITH ORIENTABLE PARTICLES” (THE GOVERNORS OF THE UNIVERSITY OF ALBERTA, priority 2007, published 2010).

Test: Aerosol particle size distribution and number concentration by SEM
Format: physicochemical
Settings: mean ± SD, n = 9 SEM images
Experimental: The particle size distribution and number concentration of the CA and CA/magnetite aerosols were determined from samples taken from the delivery apparatus used for the aerosol deposition experiments. Suspensions of CA and CA/magnetite were nebulized, and drawn by vacuum pump along with ambient, drying air at 10 l/min. into a large volume (˜16 1) delivery chamber for 1.5 minutes. With reference to FIG. 5, after filling the delivery chamber 40 with aerosol, valves 46, 48 connecting to the nebulizer 42 and the vacuum pump 44, respectively, were closed, and a butterfly valve 50 at the base 52 of the chamber 40 was opened. Aerosol was then sampled from the base 52 of the chamber 40 onto a 0.2 μm pore polycarbonate membrane (Isopore GTTP04700; Millipore, Billerica, Mass., not shown) for 1 hour at a flow rate of 0.21 l/min., maintained through the delivery chamber using dry, compressed air and a needle valve, and monitored using a low flow rate rotameter (FL-2010; OMEGA Canada, Laval, QC). Over the period of the sampling, the needle valve was adjusted as required to hold the flow rate to within 0.21±0.02 l/min.
After collecting aerosol from the delivery chamber, samples of the polycarbonate membranes were prepared for analysis by scanning electron microscopy (SEM) (S-2500; Hitachi, Japan). For both the CA and CA/magnetite aerosols, three pieces were cut from the membrane, from locations chosen at random, and mounted to SEM stubs using two-sided carbon adhesive tabs. These samples were sputter coated with a thin layer of gold prior to SEM analysis. Images of the samples were taken at 3000× magnification, again from locations chosen at random, and stored digitally.
For three SEM images from each of the three membrane samples, the length and diameter of each particle was manually measured using digital image analysis software (Scion Image; Scion Corporation, Frederick, Md.). The particles were assumed to lie parallel to the face of the membrane. Particle sizing rules were similar to those established for asbestos samples by Platek et al. (1992). Each particle was marked immediately after being sized so as to avoid sizing the same particle twice. Where a particle was not perfectly straight, its length was measured as the arc length along its central axis from one tip to the other. Diameter was measured perpendicular to the central axis at the midpoint along a particle's length, except in rare cases where the particle had two regions of clearly different diameter. In these latter cases, an average of the two diameters was taken. Overlapping particles were sized separately only if both ends of each particle were clearly visible.
After sizing, the volume of each particle was calculated, under the approximation that the particles were cylindrical. Volume-weighted size distributions were then fit with lognormal curves by nonlinear regression to yield a volume median length (VML), volume median diameter (VMD), and geometric standard deviations in both length and diameter (σL and σD), respectively) for each SEM image. In addition, the particle number concentration in the sampled air was calculated for each image from the volume of sampled air, and the ratio between the image area and the total area of the membrane exposed to the aerosol. The mean values of these parameters for the three different membrane samples were compared by one-way ANOVA for independent samples in order to gauge their variation over different locations on the membrane.

SMILES: O=C(O)c1cc(=O)c2c(OCC(O)COc3cccc4oc(C(=O)O)cc(=O)c34)cccc2o1 [CA, cromoglycic acid]
- VMD (volume median diameter) (aerosol sampled from delivery chamber): 0.34 ± 0.02 μm
- N (number of particles per unit volume of sampled air): (2.0 ± 0.3) × 10^4 cm^−3
- VML (volume median length): 2.0 ± 0.4 μm
- σD (geometric standard deviation for diameter): 1.5 ± 0.1
- σL (geometric standard deviation for length): 2.1 ± 0.1
